In PMC10739246 (ACS Bio & Med Chem Au, 2023):
Converted amounts (≈) assume the structure as drawn. “Also recorded” adds a separate entry of the source. Read-outs that look alike come from different tables or passages of the source.

Columns and labels:
[1] = tested on: cell wall biosynthesis in B. subtilis DSM402; assay: Summary of cell wall synthesis experiments; type: cell-based, Bacillus subtilis
[2] = tested on: S. aureus (CCUG1800T); assay: MIC, microdilution, S. aureus CCUG1800T; type: cell-based, Staphylococcus aureus; conditions: Staphylococcus aureus
[3] = tested on: E. coli W3110; assay: Bacterial cytological profiling (BCP) in E. coli W3110; type: cell-based, Escherichia coli; conditions: for DAPI / phase contrast / FM4-64: 1x MIC, 1 h; for DAPI: DNA condensation; for phase contrast: indicates cell lysis; for FM4-64: membrane stain; for gyrase inhibition / membrane damage: interpretation of BCP in E. coli
[4] = tested on: PonA in B. subtilis TNVS45; assay: PonA localization; conditions: 1x MIC, 30 min (vancomycin) or 1 h
[5] = tested on: E. faecalis (ATCC 19433); assay: MIC, E. faecalis ATCC 19433; type: cell-based, Enterococcus faecalis; conditions: Enterococcus faecalis, ATCC19433
[6] = tested on: E. coli BCB472; assay: GlpT localization (inner membrane) in E. coli BCB472; conditions: 1x MIC, 1 h; GFP-tagged membrane protein
[7] = tested on: B. subtilis DSM402; assay: Bacterial cytological profiling (BCP) in B. subtilis DSM402; type: cell-based, Bacillus subtilis; conditions: for DAPI / phase contrast / FM4-64: 1x MIC, 1 h; for DAPI: DNA condensation; for phase contrast: indicates cell lysis; for FM4-64: membrane stain; for gyrase inhibition / membrane damage: interpretation of BCP in B. subtilis
[8] = tested on: B. subtilis DSM402; assay: microbe, parasite or virus in culture; conditions: Bacillus subtilis, DSM402, read-out: concentration (MIC against B. subtilis DSM402)
[9] = tested on: K. pneumoniae (ATCC 10031); assay: MIC, K. pneumoniae ATCC 10031; type: cell-based, Klebsiella pneumoniae; conditions: Klebsiella pneumoniae, ATCC10031
[10] = tested on: M. tuberculosis (MC26020); assay: microbe, parasite or virus in culture; type: cell-based, Mycobacterium tuberculosis; conditions: Mycobacterium tuberculosis, read-out: MIC M. tuberculosis (MC26020)
[11] = tested on: B. subtilis DSM402; assay: Peptidoglycan integrity assay (acetic acid/methanol fixation); conditions: 1x MIC; 30 min (cell wall inhibitors) or 60 min
[12] = tested on: MreB in B. subtilis MW10; assay: MreB mobility assay; type: cell-based, Bacillus subtilis; conditions: B. subtilis MW10, 1 h of antibiotic exposure
Description: MreB is an actin homologue that forms filamentous structures along the lateral axis of the cell. It moves along the length of the cells in a spiraling pattern thereby driving lateral peptidoglycan synthesis.[36],[37] MreB mobility is sensitive to inhibition of peptidoglycan synthesis and so far, every cell wall synthesis inhibitor we tested abolished MreB movement (see Figure S70 for examples).
Expression of msfGFP-MreB was induced with 0.3% xylose. Pictures were taken after 1 h of antibiotic exposure. Two images of the same field of view were recorded 30 s apart and overlaid in ImageJ to visualize MreB mobility. A perfect overlap (yellow) indicates stalled MreB movement, while distinct red and green foci are indicative of MreB mobility. Scale bar 2 μm.
Fig. S70: MreB motility in B. subtilis MW10 after treatment with different cell wall synthesis inhibitors. Expression of GFP-MreB was induced with 0.3% xylose. Cells were treated with 1x […]
Two images of the same field of view were recorded 30 sec apart and overlaid in ImageJ to visualize MreB mobility. A perfect overlap (yellow) indicates stalled MreB movement while distinct red and green spots are indicative of MreB mobility. Scale bar 2 µm.

[13] = tested on: PbpB in B. subtilis EKB46; assay: PbpB localization; conditions: 1x MIC, 30 min (vancomycin) or 1 h
[14] = tested on: MraY in B. subtilis TNVS284; assay: MraY localization; conditions: 1x MIC, 30 min (vancomycin) or 1 h
[15] = tested on: S. aureus (ATCC 43300) MRSA; assay: MIC, microdilution, MRSA ATCC 43300; type: cell-based, Staphylococcus aureus; conditions: Staphylococcus aureus; norfloxacin-resistant strain
[16] = tested on: E. coli; assay: microbe, parasite or virus in culture; conditions: Escherichia coli, read-out: MICC (MIC of the test compound alone)
[17] = in vitro; conditions: human
[18] = tested on: E. coli (W3110); assay: MIC, microdilution, E. coli W3110; type: cell-based, Escherichia coli; conditions: Escherichia coli
[19] = tested on: MurG in B. subtilis TNVS175; assay: MurG localization; type: cell-based, Bacillus subtilis; conditions: for protein localization MurG: 1x MIC, 30 min (vancomycin) or 1 h;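 as to protein localization MurG: normal MurG forms small membrane spots and peptidoglycan inhibition gives large clusters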
[20] = tested on: E. coli; conditions: for Outcome: checkerboard with mupirocin; for FICM (MICMcheckerboard/MICM): mupirocin alone 64 µg/mL
[21] = tested on: P. aeruginosa (PAO1); assay: MIC, microdilution, P. aeruginosa PAO1; type: cell-based, Pseudomonas aeruginosa; conditions: Pseudomonas aeruginosa, PAO1
[22] = molecular target: T1, E. coli DNA gyrase (Escherichia coli, UniProt P0AES4+P0AES6); assay: In vitro DNA gyrase cleavage assay; type: biochemical
T1 construct: purchased Inspiralis

[23] = tested on: norfloxacin-resistant clinical isolate of E. coli; assay: MIC, microdilution, norfloxacin-resistant clinical isolate of E. coli; type: cell-based, Escherichia coli; conditions: Escherichia coli, read-out: MIC E. coli (norfloxacin-resistant strain)
[24] = tested on: B. subtilis DSM402; conditions: Table 2; cells treated with 1x MIC
[25] = molecular target: T2, E. coli topoisomerase IV (Escherichia coli, UniProt P0AFI2+P20083); assay: In vitro topoisomerase IV cleavage assay; type: biochemical; conditions: read-out: % topoisomerase IV inhibition
T2 construct: purchased Inspiralis

[26] = read-out: MIC S. aureus (CCUG1800T)
[27] = read-out: concentration (MIC against E. coli W3110)
[28] = Gram-negative strain, average of duplicate experiments, read-out: MIC E. coli (W3110)

T1 sequence (P0AES4 whole entry, one chain of several): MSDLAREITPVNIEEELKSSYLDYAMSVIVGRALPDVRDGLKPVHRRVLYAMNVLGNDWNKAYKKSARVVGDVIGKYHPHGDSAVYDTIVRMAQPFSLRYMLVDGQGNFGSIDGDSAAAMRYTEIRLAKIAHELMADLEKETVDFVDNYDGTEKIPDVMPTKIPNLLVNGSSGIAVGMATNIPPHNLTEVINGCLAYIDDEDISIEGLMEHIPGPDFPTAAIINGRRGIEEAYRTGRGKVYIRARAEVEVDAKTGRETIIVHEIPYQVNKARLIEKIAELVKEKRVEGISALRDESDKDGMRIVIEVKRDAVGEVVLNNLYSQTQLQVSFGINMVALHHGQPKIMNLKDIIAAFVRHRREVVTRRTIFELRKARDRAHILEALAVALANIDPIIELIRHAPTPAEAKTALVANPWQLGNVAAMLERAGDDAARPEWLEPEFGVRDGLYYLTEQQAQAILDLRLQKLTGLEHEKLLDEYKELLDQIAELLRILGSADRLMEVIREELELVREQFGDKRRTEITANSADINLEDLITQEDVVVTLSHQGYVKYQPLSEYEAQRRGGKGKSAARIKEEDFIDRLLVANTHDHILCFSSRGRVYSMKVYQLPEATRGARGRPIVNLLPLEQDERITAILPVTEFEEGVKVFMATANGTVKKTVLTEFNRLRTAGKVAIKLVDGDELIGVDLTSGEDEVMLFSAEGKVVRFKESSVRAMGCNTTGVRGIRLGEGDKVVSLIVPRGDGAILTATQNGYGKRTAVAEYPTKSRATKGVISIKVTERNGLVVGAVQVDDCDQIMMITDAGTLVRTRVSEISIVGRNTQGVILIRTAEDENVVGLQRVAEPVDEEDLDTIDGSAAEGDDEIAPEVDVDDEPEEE
T2 sequence (P0AFI2 whole entry): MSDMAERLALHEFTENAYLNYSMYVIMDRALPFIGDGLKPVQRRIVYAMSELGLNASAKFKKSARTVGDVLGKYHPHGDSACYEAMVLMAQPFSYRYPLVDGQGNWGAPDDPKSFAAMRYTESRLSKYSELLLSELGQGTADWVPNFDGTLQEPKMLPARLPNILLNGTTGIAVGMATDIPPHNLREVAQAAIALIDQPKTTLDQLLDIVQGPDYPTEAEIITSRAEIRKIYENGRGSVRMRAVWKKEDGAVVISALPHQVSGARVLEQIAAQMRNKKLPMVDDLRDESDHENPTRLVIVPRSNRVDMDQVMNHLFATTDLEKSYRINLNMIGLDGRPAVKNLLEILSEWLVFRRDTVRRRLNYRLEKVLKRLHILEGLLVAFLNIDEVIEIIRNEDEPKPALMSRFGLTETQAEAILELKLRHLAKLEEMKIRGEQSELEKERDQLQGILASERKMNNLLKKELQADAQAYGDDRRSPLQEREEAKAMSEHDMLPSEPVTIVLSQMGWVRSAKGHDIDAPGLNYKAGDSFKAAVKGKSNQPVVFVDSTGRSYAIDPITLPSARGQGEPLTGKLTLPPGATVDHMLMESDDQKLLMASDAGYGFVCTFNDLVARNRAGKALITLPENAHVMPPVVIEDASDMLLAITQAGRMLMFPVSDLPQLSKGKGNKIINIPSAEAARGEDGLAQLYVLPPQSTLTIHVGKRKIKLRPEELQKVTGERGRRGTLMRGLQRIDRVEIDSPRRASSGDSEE
T2 sequence (P20083 whole entry): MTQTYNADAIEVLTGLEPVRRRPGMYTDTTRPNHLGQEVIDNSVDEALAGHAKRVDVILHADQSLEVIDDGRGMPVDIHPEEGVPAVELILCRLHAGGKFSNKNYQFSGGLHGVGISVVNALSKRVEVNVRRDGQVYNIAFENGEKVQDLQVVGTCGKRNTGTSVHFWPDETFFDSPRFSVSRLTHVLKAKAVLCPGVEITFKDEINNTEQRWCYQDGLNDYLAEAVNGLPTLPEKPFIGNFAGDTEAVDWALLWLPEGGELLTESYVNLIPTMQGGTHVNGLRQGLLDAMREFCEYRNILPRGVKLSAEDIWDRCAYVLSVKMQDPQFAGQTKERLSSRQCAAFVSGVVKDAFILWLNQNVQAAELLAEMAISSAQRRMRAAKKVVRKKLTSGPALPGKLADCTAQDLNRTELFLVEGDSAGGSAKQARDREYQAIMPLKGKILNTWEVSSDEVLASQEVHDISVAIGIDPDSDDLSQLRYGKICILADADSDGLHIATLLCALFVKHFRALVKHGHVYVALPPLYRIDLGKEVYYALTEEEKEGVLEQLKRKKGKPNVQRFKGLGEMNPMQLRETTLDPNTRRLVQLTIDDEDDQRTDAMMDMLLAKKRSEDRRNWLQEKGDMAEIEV

O=C(O)c1cn(C2CC2)c2cc(N3CCNCC3)c(F)cc2c1=O [Cip, ciprofloxacin, reference compound]
CWB inhibited? [1]: no | MIC [2, 26]: 3.01 µM (≈ 0.997 µg/mL) | DAPI [3]: condensed | phase contrast [3]: dark | FM4-64 [3]: smooth | gyrase inhibition [3]: yes | membrane damage [3]: no | protein localization PonA [4]: septal | MIC [5]: 6.03 µM (≈ 2 µg/mL) | GlpT [6]: smooth | DAPI [7]: condensed | phase contrast [7]: dark | FM4-64 [7]: few patches | gyrase inhibition [7]: yes | membrane damage [7]: possibly | MIC [8]: 3.01 µM (≈ 0.997 µg/mL) | MIC [9]: 7.54 µM (≈ 2.5 µg/mL) | MIC [10]: 2.26 µM (≈ 0.749 µg/mL) | PG integrity [11]: intact | MreB mobility [12]: mobile | MreB mobility ([12]; listed as ciprofloxacin): did not affect either MreB mobility or localization | protein localization PbpB [13]: smooth | protein localization MraY [14]: rough | MIC [15]: 96.6 µM (≈ 32 µg/mL)

CCn1cc(C(=O)O)c(=O)c2cc(F)c(N3CCNCC3)cc21 [Nor, norfloxacin, reference compound]
MIC [16]: 0.125 µg/mL | CWB inhibited? [1]: no | MIC [2, 26]: 3.13 µM (≈ 1 µg/mL) | DAPI [3]: condensed | phase contrast [3]: dark | FM4-64 [3]: smooth | gyrase inhibition [3]: yes | membrane damage [3]: no | IC50 at 24 h [17]: 48.2 ± 3.92 µM | MIC [18, 27]: 0.37 µM | MIC [18, 28]: 0.39 µM | protein localization PonA [4]: septal/patchy | protein localization PonA ([4]; listed as norfloxacin): accumulation in distinct foci at the cell membrane | MIC [5]: 4.69 µM (≈ 1.5 µg/mL) | GlpT [6]: smooth | DAPI [7]: condensed | phase contrast [7]: dark | FM4-64 [7]: few patches | gyrase inhibition [7]: yes | membrane damage [7]: possibly | MIC [8]: 18.1 µM (≈ 5.78 µg/mL) | MIC [9]: 9.39 µM (≈ 3 µg/mL) | MIC [10]: 1.56 µM (≈ 0.498 µg/mL) | PG integrity [11]: intact | protein localization MurG [19]: smooth/spotty | protein localization MurG ([19]; listed as norfloxacin): mostly smooth phenotype | larger MurG clusters ([19]; quantification of microscopy images): up to 30% | MreB mobility [12]: mobile with static foci | MreB mobility ([12]; listed as norfloxacin): the same effect was observed | Outcome [20]: additive (>0.5 to ≤4.0 as additive (no interaction)) | FICM (MICMcheckerboard/MICM) [20]: 0.5 | protein localization PbpB [13]: smooth | protein localization PbpB ([13]; listed as norfloxacin): no effect on the other two proteins | MIC [21]: 6.26 µM (≈ 2 µg/mL) | protein localization MraY [14]: rough | protein localization MraY ([14]; listed as norfloxacin): no effect on the other two proteins | inhibition at 10 µM [22]: 73.6% | MIC [15]: 100 µM (≈ 32 µg/mL) | MIC ([23]; norfloxacin-resistant clinical isolate): 50.1 µM (≈ 16 µg/mL) | μM (concentration used, 1x MIC) [24]: 18.11 µM

CCn1cc(C(=O)O)c(=O)c2cc(F)c(N3CCN(CNc4ccc([N+](=O)[O-])cc4)CC3)cc21 [compound 21]
MIC [16]: 0.125 µg/mL | CWB inhibited? [1]: yes ^b | MIC ([2]; Tab. S10, DNA gyrase side, strain not given, values equal S. aureus CCUG1800T of Table 1, read-out: MIC): 2.13 µM (≈ 1 µg/mL) | MIC [2, 26]: 2.13 µM (≈ 1 µg/mL) | DAPI [3]: condensed | phase contrast [3]: dark | FM4-64 [3]: Smooth | gyrase inhibition [3]: yes | membrane damage [3]: no | MIC [18, 27]: 0.266 µM | MIC ([18]; E. coli W3110, converted from 0.266 μM, read-out: MIC): 0.125 µg/mL | MIC [18, 28]: 0.266 µM | MIC ([18]; Tab. S10, topoisomerase IV side, strain not given, values equal E. coli W3110 of Table 1, read-out: MIC): 0.266 µM | protein localization PonA [4]: neither compound affected the localization; also recorded: septal | MIC [5]: 2.13 µM (≈ 1 µg/mL) | GlpT [6]: Smooth | DAPI [7]: condensed | phase contrast [7]: dark | FM4-64 [7]: smooth | gyrase inhibition [7]: yes | membrane damage [7]: no | MIC [8]: 2.13 µM (≈ 1 µg/mL) | MIC [9]: 4.26 µM (≈ 2 µg/mL) | MIC [10]: 6.39 µM (≈ 3 µg/mL) | PG integrity [11]: came close to the cutoff value; also recorded: Intact | inhibition at 10 µM [25]: 45.5% | protein localization MurG [19]: only visible in the proximity of the cell poles; also recorded: polar spotty | MreB mobility [12]: much smaller clusters and more clusters per cell; also recorded: mobile with static foci | FICC (fractional inhibitory concentration of the test compound) ([20]; MICCcheckerboard/MICC): 0.0039 | Outcome [20]: additive (>0.5 to ≤4.0 as additive (no interaction)) | FICM (MICMcheckerboard/MICM) [20]: 1 | FICI (fractional inhibitory concentration index) ([20]; with mupirocin, FICC+FICM): 1.004 | protein localization PbpB [13]: neither compound affected the localization; also recorded: smooth | MIC [21]: 2.13 µM (≈ 1 µg/mL) | protein localization MraY [14]: neither compound affected the localization; also recorded: rough | inhibition at 10 µM [22]: 77.9% | MIC [15]: 34.1 µM (≈ 16 µg/mL) | MIC [23]: 17 µM (≈ 8 µg/mL) | μM (concentration used, 1x MIC) [24]: 2.13 µM
